Article PMC10013850 (Proceedings of the National Academy of Sciences of the …, 2023)

B1: hMfsd2a (Homo sapiens) (protein)
chain: MAKGEGAESGSAAGLLPTSILQSTERPAQVKKEPKKKKQQLSVCNKLCYALGGAPYQVTGCALGFFLQIYLLDVAQVGPFSASIILFVGRAWDAITDPLVGLCISKSPWTCLGRLMPWIIFSTPLAVIAYFLIWFVPDFPHGQTYWYLLFYCLFETMVTCFHVPYSALTMFISTEQTERDSATAYRMTVEVLGTVLGTAIQGQIVGQADTPCFQDLNSSTVASQSANHTHGTTSHRETQKAYLLAAGVIVCIYIICAVILILGVREQREPYEAQQSEPIAYFRGLRLVMSHGPYIKLITGFLFTSLAFMLVEGNFVLFCTYTLGFRNEFQNLLLAIMLSATLTIPIWQWFLTRFGKKTAVYVGISSAVPFLILVALMESNLIITYAVAVAAGISVAAAFLLPWSMLPDVIDDFHLKQPHFHGTEPIFFSFYVFFTKFASGVSLGISTLSLDFAGYQTRGCSQPERVKFTLNMLVTMAPIVLILLGLLLFKMYPIDEERRRQNKKALQALRDEASSSGCSETDSTELASIL

Tests used:
hMfsd2a = molecular target: T1, hMfsd2a (Homo sapiens, UniProt Q8NA29); test: single-cell flow cytometry uptake assay in transfected HEK293 cells; details: read-out: apparent Km; 37 °C, 30 min, serum-free DMEM; labelled compound
T1 sequence (Q8NA29 1-530 isoform Q8NA29-2): B1 chain

[1] = substrate: C[N+](C)(C)CCOP(=O)([O-])OC[C@H](O)COC(=O)CCCCCCCCCCCNc1ccc([N+](=O)[O-])c2nonc12; test: cells, lysate or membranes; details: 37 °C, 30 min, serum-free DMEM, labelled compound

| Molecule | Km (hMfsd2a) [µM] | Km [1] [µM] |
| --- | --- | --- |
| LPC-16:1-NBD | 3 |  |
| B1 |  | 244 |
